Results on 6 molecules are retold here after ChEMBL document CHEMBL1136552, “Synthesis and preliminary cytotoxicity of nitrogen mustard derivatives of distamycin A” (Bioorg Med Chem Lett, 2003).

This test deals with K562. The experiment in a line: Cytotoxicity against K562 leukemia cells in vitro, expressed as the minimal concentration necessary to inhibit incorporation of [3H]thymidine by 50%. The class given is functional, cell-based. The following applies: Homo sapiens, K562, 48 h.

In general, IC50 refers to the point on the concentration scale where inhibition reaches its midpoint. Read a high IC50 as a need for much substance. Turning to `CCCONc1cc(C(=O)Nc2cc(C(=O)Nc3cc(C(=O)Nc4ccc(N(CCCl)CCCl)cc4)n(C)c3)n(C)c2)n(C)c1`, the IC50 turned out to be 0.03 µM. The figure for `CCCONc1cc(C(=O)Nc2cc(C(=O)Nc3ccc(N(CCCl)CCCl)cc3)n(C)c2)n(C)c1` is 0.25 µM; for `CCCC(=O)Nc1cc(/C=C/C(=O)Nc2cc(C(=O)Nc3ccc(N(CCCl)CCCl)cc3)n(C)c2)n(C)c1` it is 0.21 µM; for `CCCC(=O)Nc1cc(/C=C/C(=O)Nc2ccc(N(CCCl)CCCl)cc2)n(C)c1` it is 1.2 µM. The figure for `CCCONc1cc(C(=O)Nc2ccc(N(CCCl)CCCl)cc2)n(C)c1` is 0.95 µM; for `O=C(O)CCCc1ccc(N(CCCl)CCCl)cc1` [CHLORAMBUCIL] it is 35 µM.
